Test results published in US11078202B2, “β-lactamase inhibitor and use thereof” (priority 2018, dated 2021).
Structures can show the parent of a compound that is named as a salt.

Assays:
Format in all cases: cell-based
[1] = test system: Acinetobacter baumannii XNWB 0007; test: MIC assay of test compounds combined with ceftazidime (8 μg/mL); details: ceftazidime 8 μg/mL fixed
In short: (§1)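 Checkerboard-free combination MIC: test compound titrated against a constant partner antibiotic in cation-adjusted Mueller-Hinton broth. Inocula prepared from TSA colonies at OD600 0.1-0.15, diluted 300×. Plates shaken, incubated under normal atmosphere at 35±2 °C for 16-20 h; endpoints taken following CLSI.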

[2] = test system: Klebsiella pneumoniae XNWB 0001; test: as above; details: ceftazidime 8 μg/mL fixed
In short: as §1

[3] = test system: Klebsiella pneumoniae XNWB 0002; test: as above; details: ceftazidime 8 μg/mL fixed
In short: as §1

[4] = test system: Klebsiella pneumoniae XNWB 0003; test: as above; details: ceftazidime 8 μg/mL fixed
In short: as §1

[5] = test system: Klebsiella pneumoniae XNWB 0004; test: as above; details: ceftazidime 8 μg/mL fixed
In short: as §1

[6] = test system: Klebsiella pneumoniae XNWB 0005; test: as above; details: ceftazidime 8 μg/mL fixed
In short: as §1

[7] = test system: Klebsiella pneumoniae XNWB 0006; test: as above; details: ceftazidime 8 μg/mL fixed
In short: as §1

[8] = test system: Pseudomonas aeruginosa XNWB 0008; test: as above; details: ceftazidime 8 μg/mL fixed
In short: as §1

[9] = test system: Acinetobacter baumannii XNWB 0007; test: MIC assay of test compounds combined with imipenem (4 μg/mL); details: imipenem 4 μg/mL fixed
In short: as §1

[10] = test system: Klebsiella pneumoniae XNWB 0001; test: as above; details: imipenem 4 μg/mL fixed
In short: as §1

[11] = test system: Klebsiella pneumoniae XNWB 0002; test: as above; details: imipenem 4 μg/mL fixed
In short: as §1

[12] = test system: Klebsiella pneumoniae XNWB 0003; test: as above; details: imipenem 4 μg/mL fixed
In short: as §1

[13] = test system: Klebsiella pneumoniae XNWB 0004; test: as above; details: imipenem 4 μg/mL fixed
In short: as §1

[14] = test system: Klebsiella pneumoniae XNWB 0005; test: as above; details: imipenem 4 μg/mL fixed
In short: as §1

[15] = test system: Klebsiella pneumoniae XNWB 0006; test: as above; details: imipenem 4 μg/mL fixed
In short: as §1

[16] = test system: Pseudomonas aeruginosa XNWB 0008; test: as above; details: imipenem 4 μg/mL fixed
In short: as §1

**Q.** With N[C@H]1C[C@@H](c2nnc([C@@H]3CC4(CC4)[C@@H]4CN3C(=O)N4OS(=O)(=O)O)o2)C1 [Example 15, (1R,4S)-4-(5-((1S,3R)-3-aminocyclobutyl)-1,3,4-oxadiazol-2-yl)-6-oxo-5,7-diazaspiro [bicyclo[3.2.1]octane-2,1′-cyclopropan]-7-yl sulfate] as the compound, how does the “The minimum concentration of test compounds combined with ceftazidime (8 μg/mL) for bacteriostasis” value [1] read?
**A.** C (C: 16-128 μg/mL)

**Q.** What about the “The minimum concentration of test compounds combined with ceftazidime (8 μg/mL) for bacteriostasis” value [2] of the same compound?
**A.** A (A: <8 μg/mL)

**Q.** And the “The minimum concentration of test compounds combined with ceftazidime (8 μg/mL) for bacteriostasis” value [3]?
**A.** A (A: <8 μg/mL)

**Q.** What about the “The minimum concentration of test compounds combined with ceftazidime (8 μg/mL) for bacteriostasis” value [4] of the same compound?
**A.** A (A: <8 μg/mL)

**Q.** And the “The minimum concentration of test compounds combined with ceftazidime (8 μg/mL) for bacteriostasis” value [5]?
**A.** B (B: 8-16 μg/mL)

**Q.** And the “The minimum concentration of test compounds combined with ceftazidime (8 μg/mL) for bacteriostasis” value [6]?
**A.** A (A: <8 μg/mL)

**Q.** What about the “The minimum concentration of test compounds combined with ceftazidime (8 μg/mL) for bacteriostasis” value [7] of the same compound?
**A.** A (A: <8 μg/mL)

**Q.** And the “The minimum concentration of test compounds combined with ceftazidime (8 μg/mL) for bacteriostasis” value [8]?
**A.** C (C: 16-128 μg/mL)

**Q.** What about the “The minimum concentration of test compounds combined with imipenem (4 μg/mL) for bacteriostasis” value [9] of the same compound?
**A.** C (C: 16-128 μg/mL)

**Q.** What about the “The minimum concentration of test compounds combined with imipenem (4 μg/mL) for bacteriostasis” value [10] of the same compound?
**A.** A (A: <8 μg/mL)

**Q.** What about the “The minimum concentration of test compounds combined with imipenem (4 μg/mL) for bacteriostasis” value [11] of the same compound?
**A.** A (A: <8 μg/mL)

**Q.** And the “The minimum concentration of test compounds combined with imipenem (4 μg/mL) for bacteriostasis” value [12]?
**A.** A (A: <8 μg/mL)

**Q.** What about the “The minimum concentration of test compounds combined with imipenem (4 μg/mL) for bacteriostasis” value [13] of the same compound?
**A.** A (A: <8 μg/mL)

**Q.** What about the “The minimum concentration of test compounds combined with imipenem (4 μg/mL) for bacteriostasis” value [14] of the same compound?
**A.** A (A: <8 μg/mL)

**Q.** What about the “The minimum concentration of test compounds combined with imipenem (4 μg/mL) for bacteriostasis” value [15] of the same compound?
**A.** A (A: <8 μg/mL)

**Q.** And the “The minimum concentration of test compounds combined with imipenem (4 μg/mL) for bacteriostasis” value [16]?
**A.** B (B: 8-16 μg/mL)

**Q.** With NCCNC[C@H](O)c1nnc([C@@H]2CC3(CC3)[C@@H]3CN2C(=O)N3OS(=O)(=O)O)o1 [Example 31, (1R,4S)-4-(5-((S)-2-((2-aminoethyl)amino)-1-hydroxyethyl)-1,3,4-oxadiazol-2-yl)-6-oxo-5,7-diazaspiro[bicyclo[3.2.1]octane-2,1′-cyclopropan]-7-yl sulfate] as the compound, how does the “The minimum concentration of test compounds combined with ceftazidime (8 μg/mL) for bacteriostasis” value [1] read?
**A.** C (C: 16-128 μg/mL)

**Q.** What about the “The minimum concentration of test compounds combined with ceftazidime (8 μg/mL) for bacteriostasis” value [2] of the same compound?
**A.** A (A: <8 μg/mL)

**Q.** And the “The minimum concentration of test compounds combined with ceftazidime (8 μg/mL) for bacteriostasis” value [3]?
**A.** A (A: <8 μg/mL)

**Q.** And the “The minimum concentration of test compounds combined with ceftazidime (8 μg/mL) for bacteriostasis” value [4]?
**A.** A (A: <8 μg/mL)

**Q.** And the “The minimum concentration of test compounds combined with ceftazidime (8 μg/mL) for bacteriostasis” value [5]?
**A.** B (B: 8-16 μg/mL)

**Q.** What about the “The minimum concentration of test compounds combined with ceftazidime (8 μg/mL) for bacteriostasis” value [6] of the same compound?
**A.** A (A: <8 μg/mL)

**Q.** And the “The minimum concentration of test compounds combined with ceftazidime (8 μg/mL) for bacteriostasis” value [7]?
**A.** A (A: <8 μg/mL)

**Q.** And the “The minimum concentration of test compounds combined with ceftazidime (8 μg/mL) for bacteriostasis” value [8]?
**A.** C (C: 16-128 μg/mL)

**Q.** And the “The minimum concentration of test compounds combined with imipenem (4 μg/mL) for bacteriostasis” value [9]?
**A.** B (B: 8-16 μg/mL)

**Q.** And the “The minimum concentration of test compounds combined with imipenem (4 μg/mL) for bacteriostasis” value [10]?
**A.** A (A: <8 μg/mL)

**Q.** And the “The minimum concentration of test compounds combined with imipenem (4 μg/mL) for bacteriostasis” value [11]?
**A.** A (A: <8 μg/mL)

**Q.** What about the “The minimum concentration of test compounds combined with imipenem (4 μg/mL) for bacteriostasis” value [12] of the same compound?
**A.** A (A: <8 μg/mL)

**Q.** And the “The minimum concentration of test compounds combined with imipenem (4 μg/mL) for bacteriostasis” value [13]?
**A.** A (A: <8 μg/mL)

**Q.** And the “The minimum concentration of test compounds combined with imipenem (4 μg/mL) for bacteriostasis” value [14]?
**A.** A (A: <8 μg/mL)

**Q.** And the “The minimum concentration of test compounds combined with imipenem (4 μg/mL) for bacteriostasis” value [15]?
**A.** A (A: <8 μg/mL)

**Q.** And the “The minimum concentration of test compounds combined with imipenem (4 μg/mL) for bacteriostasis” value [16]?
**A.** B (B: 8-16 μg/mL)
